Measured values reported in patent publication US9029337B2, “Modulation of factor 7 expression” (Isis Pharmaceuticals, Inc., priority 2007, dated 2015).
Strand notation (5' to 3'): a small letter for the sugar, then the base; units joined by * are phosphorothioate-linked, units joined directly phosphodiester-linked; [ ] holds rarer units or linkages, { } end groups; capitals alone tell only the bases. e = 2'-O-(2-methoxyethyl) (MOE); [5mC] = 5-methylcytosine; d = 2'-deoxy (DNA)

These substances were tested on human Factor 7 mRNA (assay: Antisense inhibition of human Factor 7 mRNA in HepB3 cells, 50 nM antisense oligonucleotide, lipofectin). Conditions: Table 1, 50 nM, lipofectin, approximately 24 hours, relative to untreated control cells.
Type: cell-based
How it was run: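 Percent inhibition, untreated cells as reference: derived from RNA collected about 24 hours post-transfection of 4,000-cell wells, with the human RTS 2927 primer probe set and adjustment for total RNA content (RIBOGREEN®).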

Substance	% Inhibition
407941 (antisense eG*eA*eG*eA*e[5mC]*dG*d[5mC]*dA*dG*d[5mC]*d[5mC]*dG*dT*dT*dT*eA*eT*eT*eG*eT) [compound 407941]	65%
407942 (antisense e[5mC]*eA*e[5mC]*eA*eG*dG*dT*dG*dT*dG*d[5mC]*dG*dG*dA*dG*eG*eA*eG*eA*e[5mC]) [compound 407942]	41%
407943 (antisense eG*e[5mC]*eA*eG*eG*d[5mC]*dA*d[5mC]*d[5mC]*dA*d[5mC]*dA*dG*dG*dT*eG*eT*eG*e[5mC]*eG) [compound 407943]	34%
407944 (antisense e[5mC]*e[5mC]*eA*eG*eT*dG*dG*dG*dT*dG*dG*d[5mC]*dA*dG*dG*e[5mC]*eA*e[5mC]*e[5mC]*eA) [compound 407944]	59%
407945 (antisense eA*eA*eT*e[5mC]*eA*dT*dG*dG*dG*d[5mC]*dA*dA*d[5mC]*d[5mC]*d[5mC]*eA*eG*eT*eG*eG) [compound 407945]	56%
407946 (antisense eT*e[5mC]*e[5mC]*eA*eA*dA*dA*dA*dT*dG*dA*dA*dT*d[5mC]*dA*eT*eG*eG*eG*e[5mC]) [compound 407946]	5%
407950 (antisense eA*eG*e[5mC]*eT*eT*d[5mC]*d[5mC]*dA*dT*dG*dT*dG*dA*dG*dG*eG*eT*eT*e[5mC]*eA) [compound 407950]	58%
407951 (antisense eA*eA*e[5mC]*eA*eG*d[5mC]*dT*dT*dT*dT*dG*dT*dT*dT*dT*eT*eA*eA*eA*eA) [compound 407951]	0%
407952 (antisense eG*eG*eA*eT*e[5mC]*d[5mC]*dT*dG*dG*dG*dA*dG*d[5mC]*dT*dA*e[5mC]*eA*eG*e[5mC]*e[5mC]) [compound 407952]	41%
407953 (antisense eA*e[5mC]*eA*eT*e[5mC]*d[5mC]*dA*dA*dT*dT*d[5mC]*d[5mC]*dA*d[5mC]*dA*eG*eG*eA*eT*e[5mC]) [compound 407953]	20%
407954 (antisense e[5mC]*eA*eG*eG*eG*dA*dG*dA*dG*dA*dA*d[5mC]*dA*dT*d[5mC]*e[5mC]*eA*eA*eT*eT) [compound 407954]	39%
407955 (antisense eT*eG*eT*eG*eA*dA*dA*dT*dA*dT*d[5mC]*dA*dT*dT*dG*eA*e[5mC]*eA*eA*eG) [compound 407955]	3%
407956 (antisense eA*eA*e[5mC]*eT*eT*dG*d[5mC]*dA*dT*dT*dT*dA*dG*dT*dG*eA*eT*eG*e[5mC]*eG) [compound 407956]	19%
407957 (antisense eG*eG*e[5mC]*e[5mC]*eT*dG*dG*dG*dA*dA*d[5mC]*dT*dT*dG*d[5mC]*eA*eT*eT*eT*eA) [compound 407957]	52%
407958 (antisense eG*e[5mC]*e[5mC]*eG*eT*dG*d[5mC]*dT*dT*dG*d[5mC]*d[5mC]*dG*dG*dA*eG*eT*e[5mC]*eT*eG) [compound 407958]	58%
407959 (antisense eG*e[5mC]*eA*eG*eG*dG*dA*dT*dG*dG*d[5mC]*dA*dT*d[5mC]*dG*eA*eG*eT*e[5mC]*e[5mC]) [compound 407959]	0%
407960 (antisense eG*eT*eG*e[5mC]*e[5mC]*d[5mC]*dA*dG*dG*dA*d[5mC]*dG*dG*d[5mC]*d[5mC]*e[5mC]*eT*eG*e[5mC]*eA) [compound 407960]	53%
407961 (antisense eA*eA*eG*eT*eA*dG*dA*dT*dG*dA*dT*dG*d[5mC]*d[5mC]*dT*eG*eA*eG*eT*eG) [compound 407961]	34%
407962 (antisense eT*eT*eG*eG*eA*dA*dG*d[5mC]*dA*dG*d[5mC]*d[5mC]*d[5mC]*dA*d[5mC]*eG*eG*e[5mC]*eT*eG) [compound 407962]	41%
407963 (antisense eA*eG*eA*eG*e[5mC]*dA*dG*dG*dG*dT*dG*d[5mC]*d[5mC]*dT*dT*eG*eG*eA*eA*eG) [compound 407963]	33%

Same assay, conditions: lipofectin, 50 nM antisense oligonucleotide, approximately 24 hours, Factor 7 mRNA by real-time RT-PCR (RTS 2927), relative to untreated control

Substance	% Inhibition
416422 (antisense eA*eG*e[5mC]*eG*eA*d[5mC]*d[5mC]*d[5mC]*d[5mC]*dG*d[5mC]*d[5mC]*dT*dG*d[5mC]*eA*eG*e[5mC]*e[5mC]*eA) [compound 416422]	8%
416423 (antisense eG*eT*eG*eT*eT*dT*d[5mC]*dT*d[5mC]*d[5mC]*dT*d[5mC]*d[5mC]*dT*dG*eA*eG*eG*e[5mC]*e[5mC]) [compound 416423]	51%
416424 (antisense eG*eA*eG*eA*e[5mC]*d[5mC]*dA*dT*dG*dA*dT*dG*dA*dA*dA*eT*e[5mC]*eT*e[5mC]*eT) [compound 416424]	27%
416425 (antisense eA*eA*eG*e[5mC]*eA*dG*dA*dA*dG*dG*d[5mC]*dA*dG*dA*dG*eG*eA*eG*e[5mC]*e[5mC]) [compound 416425]	13%
416426 (antisense eA*eG*e[5mC]*e[5mC]*e[5mC]*dA*dA*dG*d[5mC]*dA*dG*dA*dA*dG*dG*e[5mC]*eA*eG*eA*eG) [compound 416426]	34%
416427 (antisense e[5mC]*e[5mC]*e[5mC]*eT*eG*dA*dA*dG*d[5mC]*d[5mC]*d[5mC]*dA*dA*dG*d[5mC]*eA*eG*eA*eA*eG) [compound 416427]	5%
416428 (antisense e[5mC]*eT*eG*eG*eG*dT*dT*dA*d[5mC]*dG*dA*dA*dG*dA*d[5mC]*eT*eG*e[5mC]*eA*eG) [compound 416428]	11%
416429 (antisense eA*e[5mC]*eG*e[5mC]*e[5mC]*dG*dT*dG*dG*dG*d[5mC]*dT*dT*d[5mC]*d[5mC]*eT*e[5mC]*e[5mC]*eT*eG) [compound 416429]	47%
416430 (antisense eG*e[5mC]*eA*eG*e[5mC]*dT*d[5mC]*d[5mC]*dT*d[5mC]*d[5mC]*dA*dG*dG*dA*eA*e[5mC]*eG*e[5mC]*eG) [compound 416430]	52%
416431 (antisense eA*eG*eG*eG*eA*dG*d[5mC]*d[5mC]*d[5mC]*dG*dG*d[5mC]*d[5mC]*dG*d[5mC]*eA*eG*e[5mC]*eT*e[5mC]) [compound 416431]	25%
416432 (antisense eA*eG*e[5mC]*eA*e[5mC]*dT*dG*d[5mC]*dT*d[5mC]*d[5mC]*dT*d[5mC]*d[5mC]*dT*eT*eG*e[5mC]*eA*e[5mC]) [compound 416432]	44%
416433 (antisense eA*eG*eA*eA*eA*dT*d[5mC]*d[5mC]*dA*dG*dA*dA*d[5mC]*dA*dG*e[5mC]*eT*eT*e[5mC]*eG) [compound 416433]	0%
416434 (antisense e[5mC]*eT*eG*eT*eA*dA*dG*dA*dA*dA*dT*d[5mC]*d[5mC]*dA*dG*eA*eA*e[5mC]*eA*eG) [compound 416434]	0%
416435 (antisense e[5mC]*e[5mC]*e[5mC]*eA*eT*d[5mC]*dA*d[5mC]*dT*dG*dT*dA*dA*dG*dA*eA*eA*eT*e[5mC]*e[5mC]) [compound 416435]	3%
416436 (antisense eA*e[5mC]*eT*eG*eG*dT*d[5mC]*d[5mC]*d[5mC]*d[5mC]*dA*dT*d[5mC]*dA*d[5mC]*eT*eG*eT*eA*eA) [compound 416436]	27%
416437 (antisense eA*eG*eG*e[5mC]*eA*d[5mC]*dA*d[5mC]*dT*dG*dG*dT*d[5mC]*d[5mC]*d[5mC]*e[5mC]*eA*eT*e[5mC]*eA) [compound 416437]	52%
416439 (antisense eG*eT*e[5mC]*e[5mC]*eT*dT*dG*d[5mC]*dA*dG*dG*dA*dG*d[5mC]*d[5mC]*e[5mC]*e[5mC]*e[5mC]*eA*eT) [compound 416439]	56%
416440 (antisense eG*eG*eA*e[5mC]*eT*dG*dG*dA*dG*d[5mC]*dT*dG*dG*dT*d[5mC]*e[5mC]*eT*eT*eG*e[5mC]) [compound 416440]	44%
416441 (antisense eA*eG*eA*eT*eA*dT*dA*dG*dG*dA*d[5mC]*dT*dG*dG*dA*eG*e[5mC]*eT*eG*eG) [compound 416441]	32%
416442 (antisense eA*eG*e[5mC]*eA*eG*dA*dT*dA*dT*dA*dG*dG*dA*d[5mC]*dT*eG*eG*eA*eG*e[5mC]) [compound 416442]	57%
416443 (antisense eG*eA*eG*eG*e[5mC]*dA*dG*dA*dA*dG*d[5mC]*dA*dG*dA*dT*eA*eT*eA*eG*eG) [compound 416443]	17%
416444 (antisense eA*e[5mC]*eA*eG*eT*dT*d[5mC]*d[5mC]*dG*dG*d[5mC]*d[5mC]*d[5mC]*dT*d[5mC]*eG*eA*eA*eG*eG) [compound 416444]	24%
416445 (antisense eT*eA*e[5mC]*eT*eG*d[5mC]*dT*d[5mC]*dA*d[5mC]*dA*dG*d[5mC]*d[5mC]*dG*e[5mC]*e[5mC]*eG*eT*eT) [compound 416445]	57%
416447 (antisense e[5mC]*eA*eT*eG*eG*dA*dT*dA*dT*dT*d[5mC]*dA*dA*d[5mC]*dT*eG*eT*eG*eG*eG) [compound 416447]	17%
416448 (antisense eT*eT*eT*eT*eT*d[5mC]*d[5mC]*dA*d[5mC]*dA*dT*dG*dG*dA*dT*eA*eT*eT*e[5mC]*eA) [compound 416448]	34%
416450 (antisense eG*eG*eT*eT*eT*dG*d[5mC]*dT*dG*dG*d[5mC]*dA*dT*dT*dT*e[5mC]*eT*eT*eT*eT) [compound 416450]	49%
416451 (antisense eG*e[5mC]*e[5mC]*eA*eT*dG*dG*dA*d[5mC]*dA*d[5mC]*dT*d[5mC]*d[5mC]*d[5mC]*e[5mC]*eT*eT*eT*eG) [compound 416451]	75%
416452 (antisense e[5mC]*e[5mC]*eA*eA*e[5mC]*dA*dA*d[5mC]*dA*dG*dG*dA*d[5mC]*d[5mC]*dT*eG*e[5mC]*e[5mC]*eA*eT) [compound 416452]	19%
